Source: PubChem BioAssay (NCI)
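Step 1: Grow cells in 96-well plates. Step 2: Expose to compound for 48 hours at 5 concentrations. Step 3: Interpolate endpoints linearly; if unreached, use highest concentration. Definition used: TGI = concentration required for complete inhibition of growth.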

Tests used:
Assay in all cases: NCI tumour cell line growth inhibition, 48 h
CAKI-1 renal = system: CAKI-1 renal
HT29 colon = system: HT29 colon
TK-10 renal = system: TK-10 renal
HOP-92 NSCLC = system: HOP-92 NSCLC
SF-295 CNS = system: SF-295 CNS
CCRF-CEM leukemia = system: CCRF-CEM leukemia
SK-OV-3 ovarian = system: SK-OV-3 ovarian
DMS 273 small cell lung = system: DMS 273 small cell lung
UACC-62 melanoma = system: UACC-62 melanoma
SK-MEL-5 melanoma = system: SK-MEL-5 melanoma
A498 renal = system: A498 renal
KM12 colon = system: KM12 colon
SW-620 colon = system: SW-620 colon
SN12C renal = system: SN12C renal
NCI-H522 lung = system: NCI-H522 lung
EKVX NSCLC = system: EKVX NSCLC
MALME-3M melanoma = system: MALME-3M melanoma
RPMI-8226 leukemia = system: RPMI-8226 leukemia
SK-MEL-28 melanoma = system: SK-MEL-28 melanoma
DMS 114 small cell lung = system: DMS 114 small cell lung
NCI-H460 lung = system: NCI-H460 lung
HL-60(TB) leukemia = system: HL-60(TB) leukemia
SF-268 CNS = system: SF-268 CNS
HOP-62 NSCLC = system: HOP-62 NSCLC
SNB-19 CNS = system: SNB-19 CNS
SNB-75 CNS = system: SNB-75 CNS
UO-31 renal = system: UO-31 renal
SK-MEL-2 melanoma = system: SK-MEL-2 melanoma
IGROV1 ovarian = system: IGROV1 ovarian
MOLT-4 leukemia = system: MOLT-4 leukemia
UACC-257 melanoma = system: UACC-257 melanoma
SR leukemia = system: SR leukemia
COLO 205 colon = system: COLO 205 colon
OVCAR-5 ovarian = system: OVCAR-5 ovarian
U251 CNS = system: U251 CNS
A549 NSCLC = system: A549 NSCLC
HCT-15 colon = system: HCT-15 colon
HCC-2998 colon = system: HCC-2998 colon
M19-MEL melanoma = system: M19-MEL melanoma
ACHN renal = system: ACHN renal
SF-539 CNS = system: SF-539 CNS
XF 498 CNS = system: XF 498 CNS
OVCAR-3 ovarian = system: OVCAR-3 ovarian
NCI-H23 lung = system: NCI-H23 lung
HCT-116 colon = system: HCT-116 colon
KM20L2 colon = system: KM20L2 colon
M14 melanoma = system: M14 melanoma
OVCAR-8 ovarian = system: OVCAR-8 ovarian
DLD-1 colon = system: DLD-1 colon
OVCAR-4 ovarian = system: OVCAR-4 ovarian
LXFL 529 NSCLC = system: LXFL 529 NSCLC
K-562 leukemia = system: K-562 leukemia
HOP-18 NSCLC = system: HOP-18 NSCLC
RXF 393 renal = system: RXF 393 renal
NCI-H226 lung = system: NCI-H226 lung
SNB-78 CNS = system: SNB-78 CNS
786-0 renal = system: 786-0 renal
LOX IMVI melanoma = system: LOX IMVI melanoma

CC(C)OP(=O)(OC(C)C)/C(F)=N/Nc1ccc([N+](=O)[O-])cc1
TGI (CAKI-1 renal): > 100 µM | TGI (HT29 colon): > 100 µM | TGI (TK-10 renal): > 100 µM | TGI (HOP-92 NSCLC): > 100 µM | TGI (SF-295 CNS): > 100 µM | TGI (CCRF-CEM leukemia): > 100 µM | TGI (SK-OV-3 ovarian): > 100 µM | TGI (DMS 273 small cell lung): > 100 µM | TGI (UACC-62 melanoma): > 100 µM | TGI (SK-MEL-5 melanoma): > 100 µM | TGI (A498 renal): > 100 µM | TGI (KM12 colon): > 100 µM | TGI (SW-620 colon): > 100 µM | TGI (SN12C renal): > 100 µM | TGI (NCI-H522 lung): > 100 µM | TGI (EKVX NSCLC): > 100 µM | TGI (MALME-3M melanoma): > 100 µM | TGI (RPMI-8226 leukemia): > 100 µM | TGI (SK-MEL-28 melanoma): > 100 µM | TGI (DMS 114 small cell lung): > 100 µM | TGI (NCI-H460 lung): > 100 µM | TGI (HL-60(TB) leukemia): > 100 µM | TGI (SF-268 CNS): > 100 µM | TGI (HOP-62 NSCLC): > 100 µM | TGI (SNB-19 CNS): > 100 µM | TGI (SNB-75 CNS): > 100 µM | TGI (UO-31 renal): > 100 µM | TGI (SK-MEL-2 melanoma): > 100 µM | TGI (IGROV1 ovarian): > 100 µM | TGI (MOLT-4 leukemia): > 100 µM | TGI (UACC-257 melanoma): > 100 µM | TGI (SR leukemia): > 100 µM | TGI (COLO 205 colon): > 100 µM | TGI (OVCAR-5 ovarian): > 100 µM | TGI (U251 CNS): > 100 µM | TGI (A549 NSCLC): > 100 µM | TGI (HCT-15 colon): > 100 µM | TGI (HCC-2998 colon): > 100 µM | TGI (M19-MEL melanoma): > 100 µM | TGI (ACHN renal): > 100 µM | TGI (SF-539 CNS): > 100 µM | TGI (XF 498 CNS): > 100 µM | TGI (OVCAR-3 ovarian): > 100 µM | TGI (NCI-H23 lung): > 100 µM | TGI (HCT-116 colon): > 100 µM | TGI (KM20L2 colon): > 100 µM | TGI (M14 melanoma): > 100 µM | TGI (OVCAR-8 ovarian): > 100 µM | TGI (DLD-1 colon): > 100 µM | TGI (OVCAR-4 ovarian): > 100 µM | TGI (LXFL 529 NSCLC): > 100 µM | TGI (K-562 leukemia): > 100 µM

COc1ccc(-c2onc(-c3ccc([N+](=O)[O-])cc3)c2C2=NCCCN2)cc1
TGI (CAKI-1 renal): > 100 µM | TGI (HT29 colon): > 100 µM | TGI (HOP-18 NSCLC): > 100 µM | TGI (RXF 393 renal): > 100 µM | TGI (SF-295 CNS): > 100 µM | TGI (CCRF-CEM leukemia): > 100 µM | TGI (UACC-62 melanoma): > 100 µM | TGI (SK-MEL-5 melanoma): > 100 µM | TGI (KM12 colon): > 100 µM | TGI (SW-620 colon): > 100 µM | TGI (NCI-H226 lung): > 100 µM | TGI (SN12C renal): > 100 µM | TGI (NCI-H522 lung): > 100 µM | TGI (EKVX NSCLC): > 100 µM | TGI (MALME-3M melanoma): > 100 µM | TGI (RPMI-8226 leukemia): > 100 µM | TGI (SK-MEL-28 melanoma): > 100 µM | TGI (NCI-H460 lung): > 100 µM | TGI (HL-60(TB) leukemia): > 100 µM | TGI (SF-268 CNS): > 100 µM | TGI (HOP-62 NSCLC): > 100 µM | TGI (SNB-19 CNS): > 100 µM | TGI (SNB-75 CNS): > 100 µM | TGI (UO-31 renal): > 100 µM | TGI (SK-MEL-2 melanoma): > 100 µM | TGI (IGROV1 ovarian): > 100 µM | TGI (SNB-78 CNS): > 100 µM | TGI (MOLT-4 leukemia): > 100 µM | TGI (UACC-257 melanoma): > 100 µM | TGI (SR leukemia): > 100 µM | TGI (COLO 205 colon): > 100 µM | TGI (OVCAR-5 ovarian): > 100 µM | TGI (U251 CNS): > 100 µM | TGI (A549 NSCLC): > 100 µM | TGI (HCT-15 colon): > 100 µM | TGI (HCC-2998 colon): > 100 µM | TGI (M19-MEL melanoma): > 100 µM | TGI (ACHN renal): > 100 µM | TGI (SF-539 CNS): > 100 µM | TGI (786-0 renal): > 100 µM | TGI (XF 498 CNS): > 100 µM | TGI (OVCAR-3 ovarian): 85.5 µM | TGI (NCI-H23 lung): > 100 µM | TGI (HCT-116 colon): > 100 µM | TGI (KM20L2 colon): > 100 µM | TGI (M14 melanoma): > 100 µM | TGI (OVCAR-8 ovarian): > 100 µM | TGI (DLD-1 colon): > 100 µM | TGI (OVCAR-4 ovarian): > 100 µM | TGI (LOX IMVI melanoma): > 100 µM | TGI (LXFL 529 NSCLC): > 100 µM | TGI (K-562 leukemia): > 100 µM
